Where two headings read alike, the source gives them in different places.
Assays:
Assay type in all cases: cell-based
TNF-beta = assay: Cytokine release after LPS induction on human whole blood: TNFβ
Description: (§1) Aim of this in vitro method is to assess compounds effects on release of a panel of cytokines from whole blood following lipopolysaccharide (LPS) induced inflammatory reaction. Whole blood was incubated with compounds for 1 h prior to LPS induction. Cytokine levels in blood were measured using a multiplex FACS-based panel.
(§2) IC50 values determined for the tested compounds expressed in microM [μM] and the values for the inhibition of cytokines were listed for each compound.
(§3) Effect on cytokines release after LPS induction was performed on the compounds dissolved in DMSO or H2O to reach 10-fold concentrated stock solutions and dissolved in culture media.
(§4) Test system: Whole blood was removed from a single donor (into lithium heparin coated tubes; BD Vacutainer; 367886) and diluted 1:5 with RPMI 1640 (Thermo Fisher, 61870036). Within 30 minutes of sampling, blood was incubated with compounds for 1 h prior to LPS stimulation (O111:B4—Sigma L4391; 10 ng/ml final concentration). Stimulation continued under standard cell culture conditions (37° C. with 5% CO2) overnight (18 h), after which plates were centrifuged and supernatant removed and frozen at −80° C. until used for analyses.
(§5) Dilution of test compounds: 10×concentrated solutions (concerning to the final assay concentrations) of each test compound were prepared with the appropriate solvent (in DMSO or in water). These 10× compound solutions (10 μl) were then added to 90 μl pre-diluted whole blood (whole blood: RPMI1640, 1:5) resulting in the final assay concentration.
(§6) Test method: Diluted whole blood (80 μl) was pre-incubated with compounds (10 μl) to give final assay concentrations of 100, 30, 10, 3, 1, 0.3 and 0.1×10^−6M. Blood was incubated at 37° C. with 5% CO2 for 1 h. LPS was diluted in cell culture media to a concentration of […]; 10 μl was added to the whole blood to give a final concentration of 10 ng/ml. Plates were incubated at 37° C. for 18 h. Plates were centrifuged at 3,000 RPM for 5 minutes at 4° C. and supernatant removed and frozen at −80° C. until FACS analysis was carried out.
(§7) Cytokine release was measured using a custom multiplex system (ELISA Genie) according to manufacturers instructions. Prepared samples were run on an Attune NxT flow cytometer (Thermo Fisher).
(§8) Quantification of cytokine release inhibition: known concentration standards were run as part of the cytokine panel to allow quantification of each cytokine concentration in each sample. This was carried out using FCAP Array v3.0 software.
(§9) Results: The dose response relationship on cytokine release following LPS induction of inflammatory response in whole blood was assessed for all compounds. IC50 values were determined for each compound for a panel of cytokines (GM-CSF, IFN-gamma, IL-1beta, IL-2, IL-4, IL-5, IL-6, IL-8, IL-9, IL-10, IL-12p40, IL-13, IL-17A, IL-17F, IL-18, IL-21, IL-22, IL-33, TGF-beta, TNF-alpha, TNF-beta).

Human neutrophils = assay: Inhibition of ROS production in human neutrophils (isoluminol chemiluminescence); settings: Homo sapiens, Neutrophil, fMLP+TNF-α stimulated PMN
Procedure, shortened: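 Neutrophils from healthy-donor buffy coats (3×10^6/ml in HBSS with Ca/Mg) pre-incubated 30 min at 37° C with compound (0.1–10 μM), primed with TNF-α 20 ng/ml for 10 min, then added to fibrinogen-coated wells. Isoluminol/HRP chemiluminescence recorded every 25 sec for 250 sec after fMLP (1 μM), background-subtracted.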

IL-5 = assay: Cytokine release after LPS induction on human whole blood: IL-5
Description: as §1, §2, §3, §4, §5, §6, §7, §8, §9

IL-9 = assay: Cytokine release after LPS induction on human whole blood: IL-9
Description: as §1, §2, §3, §4, §5, §6, §7, §8, §9

IL-1beta = assay: Cytokine release after LPS induction on human whole blood: IL-1β
Description: as §1, §2, §3, §4, §5, §6, §7, §8, §9

IFN-gamma = assay: Cytokine release after LPS induction on human whole blood: IFNγ
Description: as §1, §2, §3, §4, §5, §6, §7, §8, §9

[1] = Homo sapiens, LPS 10 ng/ml, 18 h, read-out: Whole Blood: TNF β IC50
[2] = human whole blood, inhibition of LPS induced inflammation, read-out: IC50 β
[3] = Homo sapiens, LPS 10 ng/ml, 18 h, read-out: Whole Blood: IL-5 IC50
[4] = human whole blood, inhibition of LPS induced inflammation, read-out: IC50 IL-5
[5] = Homo sapiens, LPS 10 ng/ml, 18 h, read-out: Whole Blood: IL-9 IC50
[6] = human whole blood, inhibition of LPS induced inflammation, read-out: IC50 IL-9
[7] = Homo sapiens, LPS 10 ng/ml, 18 h, read-out: Whole Blood: IL-1β IC50
[8] = human whole blood, inhibition of LPS induced inflammation, read-out: IC50 IL-1b
[9] = Homo sapiens, LPS 10 ng/ml, 18 h, read-out: Whole Blood: IFNγ IC50
[10] = human whole blood, inhibition of LPS induced inflammation, read-out: IC50 IFNγ

SMILES	IC50 (TNF-beta; [1]) [µM]	IC50 (TNF-beta; [2]) [µM]	IC50 (IL-5; [3]) [µM]	IC50 (IL-5; [4]) [µM]	IC50 (IL-9; [5]) [µM]	IC50 (IL-9; [6]) [µM]	IC50 (IL-1beta; [7]) [µM]	IC50 (IL-1beta; [8]) [µM]	IC50 (IFN-gamma; [9]) [µM]	IC50 (IFN-gamma; [10]) [µM]	IC50 (Human neutrophils) [µM]	inhibition at 0.3 µM (Human neutrophils) [%]
CC(=O)N(Cc1cc(O)c(C(=O)O)cc1O)Cc1cc(O)c(C(=O)O)cc1O [IIIc-057a, N,N-Bis(4-carboxy-2,5-dihydroxyphenylmethyl)acetamide]	1.58	1.58	> 100	100	11.1	11.1	16.2	16.2	0.9	0.9		90.3
O=C(O)c1cc(O)c(CN(Cc2cc(O)c(C(=O)O)cc2O)Cc2cc(O)c(C(=O)O)cc2O)cc1O [IIIc-061a, Tris(4-carboxy-2,5-dihydroxyphenylmethyl)amine]	0.81	0.81	> 100	100	8.85	8.85	> 100	100	2.48	2.48		92.5
O=C(O)c1cc(NC(=O)c2cc(O)cc(C(=O)Nc3ccc(O)c(C(=O)O)c3)c2O)ccc1O [IIc-007a, 5-(3-(3-carboxy-4-hydroxyphenylaminocarbonyl)-2,5-dihydroxybenzamido)-2-hydroxy benzoic acid]	0.29	0.29	> 100	100	2.14	2.14	> 100	100	0.11	0.11		93
O=C(O)c1cc(O)ccc1NC(=O)c1cc(O)cc(C(=O)Nc2ccc(O)cc2C(=O)O)c1O [IIc-009a, 2-(3-(2-carboxy-4-hydroxyphenylaminocarbonyl)-2,5-dihydroxybenzamido)-5-hydroxyl benzoic acid]	6.94	6.94	> 100	100	18.9	18.9	> 100	100	0.54	0.54		75.3
O=C(O)c1cc(O)cc(CSCc2cc(O)cc(C(=O)O)c2O)c1O [IVc-058a, 3-((2,5-Dihydroxy-3-carboxyphenyl)methylthiomethyl)-2,5-dihydroxybenzoic acid]	59.3	59.3	> 100	100	31.1	31.1	27.5	27.5	10.6	10.6	0.29	77
O=C(O)c1cc(O)cc(CS(=O)(=O)Cc2cc(O)cc(C(=O)O)c2O)c1O [IVc-059a, 3-((2,5-Dihydroxy-3-carboxyphenyl)methylsulfonylmethyl)-2,5-dihydroxybenzoic acid]	0.33	0.33	> 100	100	0.4	0.4	38.6	38.6	4.34	4.34	0.147	74
COC(=O)c1cc(OC(C)=O)cc(CS(=O)(=O)Cc2cc(OC(C)=O)cc(C(=O)OC)c2OC(C)=O)c1OC(C)=O [IVc-059a-E2-A4]	19.4	19.4	> 100	100	2.9	2.9	14.1	14.1	3.5	3.5	4.13	29.2

Continued, in another order:

IC50 (TNF-beta; [1]) [µM]	IC50 (TNF-beta; [2]) [µM]	IC50 (IL-5; [3]) [µM]	IC50 (IL-5; [4]) [µM]	IC50 (IL-9; [5]) [µM]	IC50 (IL-9; [6]) [µM]	IC50 (IL-1beta; [7]) [µM]	IC50 (IL-1beta; [8]) [µM]	IC50 (IFN-gamma; [9]) [µM]	IC50 (IFN-gamma; [10]) [µM]	IC50 (Human neutrophils) [µM]	SMILES	inhibition at 0.3 µM (Human neutrophils) [%]
0.23	0.23	> 100	100	3.01	3.01	> 100	100	18.9	18.9		O=C(O)Cc1cc(O)c(C(=O)Nc2ccccc2-c2nnn[nH]2)cc1O [IIIa-001aTz]	69.3
0.89	0.89	> 100	100	11.9	11.9	> 100	100	0.15	0.15		O=C(O)Cc1cc(O)c(C(=O)Nc2c(C(=O)O)cccc2C(=O)O)cc1O [IIIa-013a, 2-(4-(carboxymethyl)-2,5-dihydroxybenzamido)isophthalic acid]	76.5
91.5	91.5	> 100	100	1.41	1.41	> 100	100	1.04	1.04	0.62	O=C(O)c1ccccc1CNC(=O)c1cc(O)cc(C(=O)O)c1O [IIa-053a, 3-(2-Carboxyphenylmethylaminocarbonyl)-2,5-dihydroxybenzoic acid]	63.1
13.2	13.2	> 100	100	5.63	5.63	34.4	34.4	30.5	30.5	0.355	O=C(O)c1cc(O)c(C(=O)Nc2ccccc2C(=O)O)cc1O [Ia-001a, 4-(2-carboxyphenylaminocarbonyl)-2,5-dihydroxybenzoic acid]	48
53	53	> 100	100	8.63	8.63	> 100	100	> 100	100	1.54	O=C(O)c1cc(O)c(C(=O)Nc2ccccc2-c2nnn[nH]2)cc1O [Ia-001a-Tz, 4-(2-(1H-tetrazol-5-yl)phenyl-aminocarbonyl)-2,5-dihydroxybenzoic acid]	54.3
29.7	29.7	> 100	100	46.9	46.9	> 100	100	0.44	0.44	2.4	O=C(O)c1cc(O)c(C(=O)Nc2ccccc2S(=O)(=O)O)cc1O [Ia-001c, 2,5-dihydroxy-4-(2-sulfophenylaminocarbonyl)benzoic acid]	40.4
55	55	> 100	100	3.62	3.62	> 100	100	2.95	2.95	2.49	O=C(O)c1cc(O)c(C(=O)Nc2ccc(-c3nnn[nH]3)cc2)cc1O [Ia-003a-Tz, 4-(4-(1H-tetrazol-5-yl)phenyl-aminocarbonyl)-2,5-dihydroxybenzoic acid]	62.2
